# “And” between values parts separate entries of the source, which are not always exact repeats. Identical values can stand only once.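 The compound was tested at five concentrations on cells cultured in 96-well plates, with a 48-hour exposure period. The concentration for 50% growth inhibition is given as GI50. The concentration for full growth arrest is given as TGI.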
# Columns and labels:
# Assay in all cases: NCI tumour cell line growth inhibition, 48 h
# [1] = system: CCRF-CEM leukemia
# [2] = system: NCI-H23 lung
# [3] = system: SF-539 CNS
# [4] = system: T-47D breast
# [5] = system: OVCAR-5 ovarian
# [6] = system: OVCAR-8 ovarian
# [7] = system: SNB-75 CNS
# [8] = system: KM12 colon
# [9] = system: PC-3 prostate
# [10] = system: MALME-3M melanoma
# [11] = system: SK-MEL-2 melanoma
# [12] = system: SNB-19 CNS
# [13] = system: SK-MEL-5 melanoma
# [14] = system: MOLT-4 leukemia
# [15] = system: OVCAR-4 ovarian
# [16] = system: BT-549 breast
# [17] = system: NCI-H522 lung
# [18] = system: HS 578T breast
# [19] = system: EKVX NSCLC
# [20] = system: SF-268 CNS
# [21] = system: OVCAR-3 ovarian
# [22] = system: COLO 205 colon
# [23] = system: K-562 leukemia
# [24] = system: CAKI-1 renal
# [25] = system: SF-295 CNS
# [26] = system: UACC-62 melanoma
# [27] = system: MDA-MB-435
# [28] = system: TK-10 renal
# [29] = system: HCT-116 colon
# [30] = system: UO-31 renal
# [31] = system: U251 CNS
# [32] = system: RPMI-8226 leukemia
# [33] = system: HCT-15 colon
# [34] = system: 786-0 renal
# [35] = system: IGROV1 ovarian
# [36] = system: MCF7 breast
# [37] = system: HOP-62 NSCLC
# [38] = system: SW-620 colon
# [39] = system: NCI-H226 lung
# [40] = system: SN12C renal
# [41] = system: HOP-92 NSCLC
# [42] = system: HCC-2998 colon
# [43] = system: SK-OV-3 ovarian
# [44] = system: NCI-H460 lung
# [45] = system: NCI/ADR-RES ovarian
# [46] = system: A549 NSCLC
# [47] = system: HL-60(TB) leukemia
# [48] = system: A498 renal
# [49] = system: RXF 393 renal
# [50] = system: MDA-MB-231 breast
# [51] = system: LOX IMVI melanoma
# [52] = system: UACC-257 melanoma
# [53] = system: SK-MEL-28 melanoma
# [54] = system: DU-145 prostate
# [55] = system: ACHN renal
# [56] = system: SR leukemia
# [57] = system: HT29 colon
compound,measurement,setting,value
CN(C)c1ccc2nc3ccc(N)cc3[n+](-c3ccccc3)c2c1,GI50,[1],4.09 µM and 1.25 µM
same,TGI,[1],> 100 µM and 21.7 µM
same,GI50,[2],1.73 µM and 0.461 µM
same,TGI,[2],19.8 µM and 5.1 µM
same,GI50,[3],2.61 µM and 0.332 µM
same,TGI,[3],13.5 µM and 6.59 µM
same,GI50,[4],0.457 µM and 0.662 µM
same,TGI,[4],6.5 µM and 21 µM
same,GI50,[5],13.3 µM
same,TGI,[5],> 81.7 µM
same,GI50,[6],2.02 µM and 1.07 µM
same,TGI,[6],> 66 µM and 7.69 µM
same,GI50,[7],2.44 µM and 2.8 µM
same,TGI,[7],17 µM and 9.52 µM
same,GI50,[8],1.75 µM and 1.51 µM
same,TGI,[8],10.2 µM and 26.1 µM
same,TGI,[9],31.2 µM and 3.22 µM
same,GI50,[10],1.57 µM and 0.56 µM
same,TGI,[10],10.1 µM and 4.59 µM
same,GI50,[11],2.39 µM and 1.74 µM
same,TGI,[11],6.16 µM and 11.1 µM
same,GI50,[12],1.69 µM
same,TGI,[12],47.1 µM
same,GI50,[13],1.07 µM and 0.255 µM
same,TGI,[13],3.02 µM and 0.827 µM
same,GI50,[14],5.14 µM and 0.703 µM
same,GI50,[15],0.396 µM and 0.28 µM
same,GI50,[16],2.46 µM and 0.584 µM
same,TGI,[16],14.2 µM and 61.9 µM
same,GI50,[17],1.72 µM
same,TGI,[17],10.5 µM
same,GI50,[18],3.24 µM and 2.93 µM
same,TGI,[18],28 µM and 56.2 µM
same,GI50,[19],1.39 µM and 0.87 µM
same,TGI,[19],23.1 µM and 23 µM
same,GI50,[20],1.94 µM and 1.7 µM
same,TGI,[20],20.9 µM and 19.7 µM
same,GI50,[21],0.474 µM and 0.317 µM
same,TGI,[21],9.02 µM and 12.7 µM
same,GI50,[22],0.759 µM and 0.598 µM
same,TGI,[22],2.99 µM and 2.75 µM
same,GI50,[23],1.51 µM and 0.424 µM
same,TGI,[23],> 100 µM and 68.7 µM
same,TGI,[24],52.8 µM and 7.47 µM
same,GI50,[25],1.75 µM and 0.584 µM
same,TGI,[25],7.41 µM and 24.4 µM
same,GI50,[26],2.04 µM and 1.85 µM
same,TGI,[26],13 µM and 10.3 µM
same,GI50,[27],1.79 µM and 1.09 µM
same,TGI,[27],8.77 µM and 2.91 µM
same,GI50,[28],3.87 µM and 2.48 µM
same,TGI,[28],27.4 µM and 28.4 µM
same,GI50,[29],2.89 µM and 0.42 µM
same,TGI,[29],20.4 µM and 2.08 µM
same,GI50,[30],23.6 µM and 4.98 µM
same,TGI,[30],> 100 µM and 24.8 µM
same,GI50,[31],1.35 µM and 0.64 µM
same,TGI,[31],34.4 µM and 6.5 µM
same,GI50,[32],0.482 µM and 0.177 µM
same,TGI,[32],7.4 µM and 10 µM
same,TGI,[33],> 100 µM and 24 µM
same,GI50,[34],10.9 µM and 2.19 µM
same,TGI,[34],33.6 µM and 49.2 µM
same,GI50,[35],3.31 µM and 1.74 µM
same,TGI,[35],39.3 µM and 5.53 µM
same,GI50,[36],0.519 µM and 0.369 µM
same,TGI,[36],30.3 µM and 3.15 µM
same,GI50,[37],2.31 µM and 2.92 µM
same,TGI,[37],18.9 µM and 14.4 µM
same,GI50,[38],2.98 µM and 1.18 µM
same,TGI,[38],31 µM and 12.2 µM
same,GI50,[39],8.77 µM and 13 µM
same,TGI,[39],42 µM and 70.1 µM
same,GI50,[40],1.92 µM and 1.34 µM
same,TGI,[40],46 µM and 10.4 µM
same,GI50,[41],1.85 µM
same,TGI,[41],8.24 µM
same,GI50,[42],1.87 µM and 9.25 µM
same,TGI,[42],16.1 µM and 41.8 µM
same,GI50,[43],18.2 µM and 4.73 µM
same,TGI,[43],67.3 µM and > 100 µM
same,GI50,[44],2.53 µM and 1.9 µM
same,TGI,[44],11.4 µM and 11.2 µM
same,TGI,[45],> 100 µM and 11.9 µM
same,TGI,[46],> 100 µM and 11.6 µM
same,GI50,[47],0.578 µM
same,TGI,[47],15.9 µM
same,GI50,[48],3.94 µM and 19.6 µM
same,TGI,[48],37.8 µM and > 100 µM
same,GI50,[49],16.3 µM and 10.8 µM
same,TGI,[49],67.5 µM and 26.6 µM
same,GI50,[50],4.61 µM and 0.492 µM
same,TGI,[50],31.5 µM and 17.1 µM
same,GI50,[51],2.65 µM and 0.515 µM
same,TGI,[51],18.3 µM
same,GI50,[52],0.757 µM and 0.705 µM
same,TGI,[52],> 25.2 µM and 3.33 µM
same,GI50,[53],3.76 µM and 7.38 µM
same,TGI,[53],20 µM and 37.7 µM
same,GI50,[54],5.32 µM and 1.95 µM
same,TGI,[54],33 µM and 3.96 µM
same,TGI,[55],76.9 µM and 31.8 µM
same,GI50,[56],2.44 µM and 0.533 µM
same,GI50,[57],2.74 µM and 3.19 µM
same,TGI,[57],16.1 µM and 16.2 µM

# Reference: PubChem BioAssay (NCI)
